Drawing on PubChem BioAssay AID248 (DTP/NCI, 2004), this text covers T/C for eight compounds.

Toxic doses and inconclusive results are not listed.

The assay has as its system L1210 leukemia ip in BDF1 mice, survival T/C. Briefly: NCI In Vivo Anticancer Drug Screen. Data for tumor model L1210 Leukemia (intraperitoneal) in B6D2F1 (BDF1) mice. Particulars: endpoint: mean survival time, higher = longer survival. In short, it runs like this:
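Transplantable tumor model; survival measured in treated vs vehicle control mice. Value = treated/control.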

Take `O=C(NCCCCCCNC(=O)N1CC1)N1CC1`: the T/C is, setting by setting: (dose: 0.08 mg/kg/injection, schedule: Q01DX009 (ip), vehicle: saline) 107 % of control; (dose: 0.15 mg/kg/injection, schedule: Q01DX009 (ip), vehicle: saline) 97 % of control; (dose: 0.19 mg/kg/injection, schedule: Q01DX009 (ip), vehicle: saline) 122 % of control; (dose: 0.3 mg/kg/injection, schedule: Q01DX009 (ip), vehicle: saline) 119 % of control; (dose: 0.4 mg/kg/injection, schedule: Q04DX003 (ip), vehicle: saline) 113 % of control; (dose: 0.66 mg/kg/injection, schedule: Q01DX009 (ip), vehicle: saline) 168 % of control. The T/C runs as follows: (dose: 0.8 mg/kg/injection, schedule: Q04DX003 (ip), vehicle: saline) 115 % of control; (dose: 1.4 mg/kg/injection, schedule: Q01DX009 (ip), vehicle: saline) 117 % of control; (dose: 1.7 mg/kg/injection, schedule: Q01DX001 (ip), vehicle: saline) 121 % of control; (dose: 2.2 mg/kg/injection, schedule: Q01DX009 (ip), vehicle: saline) 86 % of control; (dose: 2.5 mg/kg/injection, schedule: Q04DX003 (ip), vehicle: saline) 166 % of control; (dose: 3.75 mg/kg/injection, schedule: Q01DX001 (ip), vehicle: saline) 150 % of control.
`C[N+](C)(C)CCCBr`: the T/C runs as follows: (dose: 10.0 mg/kg/injection, schedule: Q01DX001 (ip), vehicle: saline) 112 % of control; (dose: 20.0 mg/kg/injection, schedule: Q01DX001 (ip), vehicle: saline) 89 % of control.
Take `COc1c2c(c(OC)c3ccccc13)C(=O)C1=C(CC=CC1)C2=O`: the T/C was 94 % of control (dose: 50.0 mg/kg/injection, schedule: Q01DX005 (ip), vehicle: water); 87 % of control (dose: 100.0 mg/kg/injection, schedule: Q01DX005 (ip), vehicle: water); 92 % of control (dose: 200.0 mg/kg/injection, schedule: Q01DX005 (ip), vehicle: water).
As to `O=C(C1=Cc2ccccc2OC1)N1CCN(c2ccccc2)CC1`, the T/C (dose: 100.0 mg/kg/injection, schedule: Q04DX003 (ip), vehicle: gum acacia) was 103 % of control; the T/C (dose: 200.0 mg/kg/injection, schedule: Q04DX003 (ip), vehicle: gum acacia) was 95 % of control; the T/C (dose: 400.0 mg/kg/injection, schedule: Q04DX003 (ip), vehicle: gum acacia) is 101 % of control.
For `CC1=CCC(=O)C2(C)CC(O)C(C(C)C(=O)O)C=C12` (centres undefined), the T/C was 97 % of control (dose: 100.0 mg/kg/injection, schedule: Q04DX003 (ip), vehicle: acetone); 95 % of control (dose: 200.0 mg/kg/injection, schedule: Q04DX003 (ip), vehicle: acetone); 105 % of control (dose: 400.0 mg/kg/injection, schedule: Q04DX003 (ip), vehicle: acetone).
Consider `CC(CC(c1ccccc1)c1ccccc1)[N+](C)(C)C` (centres undefined), for which the T/C is 104 % of control (dose: 5.0 mg/kg/injection, schedule: Q01DX001 (ip), vehicle: carboxymethylcellulose (CMC)); 101 % of control (dose: 10.0 mg/kg/injection, schedule: Q01DX001 (ip), vehicle: carboxymethylcellulose (CMC)); 95 % of control (dose: 20.0 mg/kg/injection, schedule: Q01DX001 (ip), vehicle: carboxymethylcellulose (CMC)); 93 % of control (dose: 40.0 mg/kg/injection, schedule: Q01DX001 (ip), vehicle: carboxymethylcellulose (CMC)); 98 % of control (dose: 80.0 mg/kg/injection, schedule: Q01DX001 (ip), vehicle: carboxymethylcellulose (CMC)).
As to `C=C1C(=O)OC2/C=C(\C)C(O)C/C=C(/C)CCC12` (centres undefined), the T/C runs as follows: (dose: 25.0 mg/kg/injection, schedule: Q04DX003 (ip), vehicle: Klucel (hydroxypropylcellulose) (HPC)) 96 % of control; (dose: 50.0 mg/kg/injection, schedule: Q04DX003 (ip), vehicle: Klucel (hydroxypropylcellulose) (HPC)) 102 % of control; (dose: 100.0 mg/kg/injection, schedule: Q04DX003 (ip), vehicle: Klucel (hydroxypropylcellulose) (HPC)) 100 % of control.
`O=C(O)[C@@H]1C[C@@H](O)CN1`: the T/C reads like this: (dose: 100.0 mg/kg/injection, schedule: Q01DX001 (ip), vehicle: saline) 87 % of control; (dose: 200.0 mg/kg/injection, schedule: Q01DX001 (ip), vehicle: saline) 100 % of control; (dose: 400.0 mg/kg/injection, schedule: Q01DX001 (ip), vehicle: saline) 94 % of control.
